Active and inactive are the calls of the source. How the calls were made is not given here.
Test system: CCRIS mutagenicity, Ames/micronucleus/aberration tests
Assay: CCRIS mutagenicity studies
[1] = Test System: AMES SALMONELLA TYPHIMURIUM, Strain/Indicator: TA98, Metabolic Activation: NONE, Method: STANDARD PLATE
[2] = Test System: AMES SALMONELLA TYPHIMURIUM, Strain/Indicator: TA100, Metabolic Activation: NONE, Method: STANDARD PLATE
[3] = Test System: AMES SALMONELLA TYPHIMURIUM, Strain/Indicator: TA100, Metabolic Activation: RAT, LIVER, S-9, AROCLOR 1254, Method: STANDARD PLATE
[4] = Test System: AMES SALMONELLA TYPHIMURIUM, Strain/Indicator: TA100, Metabolic Activation: NONE, Method: PREINCUBATION
[5] = Test System: AMES SALMONELLA TYPHIMURIUM, Strain/Indicator: TA1535, Metabolic Activation: NONE, Method: PREINCUBATION

In the case of `C=C(C)c1ccc(C)c2ccc(CO)c-2c1`, the mutagenic call [1] is reported as “inactive; negative”, the mutagenic call (Test System: AMES SALMONELLA TYPHIMURIUM, Strain/Indicator: TA98, Metabolic Activation: RAT, LIVER, S-9, AROCLOR 1254, Method: STANDARD PLATE) is reported as “active; positive” and the mutagenic call [2] is reported as “inactive; negative”. The mutagenic call [3] was “active; positive”.

In the case of `C=C(C)[C@@]12OC3(c4ccccc4)O[C@@H]1[C@@H]1[C@@H]4OC4(CO)[C@@H](O)[C@]4(O)C(=O)C(C)=C[C@H]4[C@@]1(O3)[C@H](C)[C@H]2OC(=O)/C=C/C=C/c1ccccc1` (stereo not given in full), the mutagenic call (Test System: AMES SALMONELLA TYPHIMURIUM, Strain/Indicator: TA97, Metabolic Activation: HAMSTER, LIVER, S-9, AROCLOR 1254 (10 OR 30%), Method: PREINCUBATION) is reported as “inactive; negative”, the mutagenic call (Test System: AMES SALMONELLA TYPHIMURIUM, Strain/Indicator: TA97, Metabolic Activation: NONE, Method: PREINCUBATION) is reported as “inactive; negative” and the mutagenic call (Test System: AMES SALMONELLA TYPHIMURIUM, Strain/Indicator: TA97, Metabolic Activation: RAT, LIVER, S-9, AROCLOR 1254 (10 OR 30%), Method: PREINCUBATION) is reported as “inactive; negative”. The mutagenic call (Test System: AMES SALMONELLA TYPHIMURIUM, Strain/Indicator: TA98, Metabolic Activation: HAMSTER, LIVER, S-9, AROCLOR 1254 (10 OR 30%), Method: PREINCUBATION) was “inactive; negative”, the mutagenic call (Test System: AMES SALMONELLA TYPHIMURIUM, Strain/Indicator: TA98, Metabolic Activation: NONE, Method: PREINCUBATION) was “inactive; negative” and the mutagenic call (Test System: AMES SALMONELLA TYPHIMURIUM, Strain/Indicator: TA98, Metabolic Activation: RAT, LIVER, S-9, AROCLOR 1254 (10 OR 30%), Method: PREINCUBATION) was “inactive; negative”. For the same compound, the mutagenic call (Test System: AMES SALMONELLA TYPHIMURIUM, Strain/Indicator: TA100, Metabolic Activation: HAMSTER, LIVER, S-9, AROCLOR 1254 (10 OR 30%), Method: PREINCUBATION) was “inactive; negative”, the mutagenic call [4] was “inactive; negative” and the mutagenic call (Test System: AMES SALMONELLA TYPHIMURIUM, Strain/Indicator: TA100, Metabolic Activation: RAT, LIVER, S-9, AROCLOR 1254 (10 OR 30%), Method: PREINCUBATION) was “inactive; negative”. The mutagenic call (Test System: AMES SALMONELLA TYPHIMURIUM, Strain/Indicator: TA1535, Metabolic Activation: HAMSTER, LIVER, S-9, AROCLOR 1254 (10 OR 30%), Method: PREINCUBATION) was “inactive; negative”, the mutagenic call [5] was “inactive; negative” and the mutagenic call (Test System: AMES SALMONELLA TYPHIMURIUM, Strain/Indicator: TA1535, Metabolic Activation: RAT, LIVER, S-9, AROCLOR 1254 (10 OR 30%), Method: PREINCUBATION) was “inactive; negative”.

For `CC(N)=O`, the mutagenic call (End Point: IN VIVO MICRONUCLEUS, Test System: BLOOD ERYTHROCYTES, Species: MOUSE, Strain/Sex: CD-1/MALE, Route: INTRAPERITONEAL INJECTION) was “inactive; negative”, the mutagenic call [1] was “inactive; negative” and the mutagenic call (Test System: AMES SALMONELLA TYPHIMURIUM, Strain/Indicator: TA98, Metabolic Activation: RAT, LIVER, S-9, Method: STANDARD PLATE) was “inactive; negative”. For the same compound, the mutagenic call [2] was “inactive; negative”, the mutagenic call (Test System: AMES SALMONELLA TYPHIMURIUM, Strain/Indicator: TA100, Metabolic Activation: RAT, LIVER, S-9, Method: STANDARD PLATE) was “inactive; negative” and the mutagenic call (Test System: Ames Salmonella typhimurium, Strain/Indicator: YG7108pin3ERb5, Metabolic Activation: None, Method: Standard plate) was “inactive; negative”.

With `OCc1ccc2c(CO)c3ccc4ccccc4c3nc2c1` the mutagenic call [3] was “inactive; negative”.

In the case of `O=Cc1ccc(C(=O)ON(OCc2ccccc2)C(=O)c2ccccc2)cc1`, the mutagenic call [2] is reported as “active; positive” and the mutagenic call (Test System: AMES SALMONELLA TYPHIMURIUM, Strain/Indicator: TA100, Metabolic Activation: RAT, S-9, AROCLOR, Method: STANDARD PLATE) is reported as “active; positive”.

`Cc1ccc(NC(=O)N(C)C)cc1Cl` was tested, and the mutagenic call (Test System: AMES SALMONELLA TYPHIMURIUM, Strain/Indicator: TA98, Metabolic Activation: IMMATURE CARP LIVER S-9, 3-METHYLCHOLANTHRENE, Method: STANDARD PLATE) was “inactive; negative”, the mutagenic call [1] was “inactive; negative” and the mutagenic call (Test System: AMES SALMONELLA TYPHIMURIUM, Strain/Indicator: TA100, Metabolic Activation: IMMATURE CARP LIVER S-9, 3-METHYLCHOLANTHRENE, Method: STANDARD PLATE) was “inactive; negative”. The mutagenic call [2] was “inactive; negative”.

For `CCCC(Cl)C(=O)S` (stereo not given), the mutagenic call (Test System: AMES SALMONELLA TYPHIMURIUM, Strain/Indicator: TA1535, Metabolic Activation: NONE) was “active; positive”.

`Oc1ccc(O)c(O)c1` was tested, and the mutagenic call (End Point: IN VITRO CHROMOSOMAL ABERRATIONS, Test System: HUMAN PERIPHERAL LYMPHOCYTES, Metabolic Activation: NONE) was “active; positive (ploidy changes)”, the mutagenic call (End Point: IN VITRO CHROMOSOMAL ABERRATIONS, Test System: HUMAN PERIPHERAL LYMPHOCYTES, Metabolic Activation: NONE, Method: FISH) was “active; positive (ploidy); greater effects on certain chromosomes” and the mutagenic call (End Point: IN VITRO CHROMOSOMAL ABERRATIONS, Test System: HUMAN PERIPHERAL LYMPHOCYTES, Metabolic Activation: NONE, Method: FISH - DUAL COLOR PROBES) was “active; positive (ploidy changes in chromosomes 7 and 8)”. For the same compound, the mutagenic call (End Point: IN VITRO CHROMOSOMAL ABERRATIONS, Test System: HUMAN PERIPHERAL LYMPHOCYTES, Metabolic Activation: NONE, Method: FISH- DUAL COLOR PROBES) was “inactive; negative for translocations”, the mutagenic call (End Point: IN VITRO MICRONUCLEUS, Test System: HUMAN PERIPHERAL LYMPHOCYTES, Metabolic Activation: NONE, Method: FISH - DUAL COLOR PROBES) was “active; positive” and the mutagenic call (Test System: AMES SALMONELLA TYPHIMURIUM, Strain/Indicator: TA97, Metabolic Activation: RAT, LIVER, S-9, AROCLOR 1254, Method: PREINCUBATION) was “inactive; negative”. The mutagenic call (Test System: AMES SALMONELLA TYPHIMURIUM, Strain/Indicator: TA97, Metabolic Activation: RAT, LIVER, S-9, PHENOBARBITAL, Method: PREINCUBATION) was “inactive; negative”, the mutagenic call (Test System: AMES SALMONELLA TYPHIMURIUM, Strain/Indicator: TA98, Metabolic Activation: RAT, LIVER, S-9, AROCLOR 1254, Method: PREINCUBATION) was “inactive; negative” and the mutagenic call (Test System: AMES SALMONELLA TYPHIMURIUM, Strain/Indicator: TA98, Metabolic Activation: RAT, LIVER, S-9, PHENOBARBITAL, Method: PREINCUBATION) was “inactive; negative”. For the same compound, the mutagenic call (Test System: AMES SALMONELLA TYPHIMURIUM, Strain/Indicator: TA100, Metabolic Activation: NONE, Method: FLUCTUATION TEST) was “inactive; negative”, the mutagenic call [4] was “inactive; negative” and the mutagenic call (Test System: AMES SALMONELLA TYPHIMURIUM, Strain/Indicator: TA100, Metabolic Activation: RAT, LIVER, S-9, AROCLOR 1254, Method: PREINCUBATION) was “inactive; negative”. The mutagenic call (Test System: AMES SALMONELLA TYPHIMURIUM, Strain/Indicator: TA100, Metabolic Activation: RAT, LIVER, S-9, PCB, Method: FLUCTUATION TEST) was “active; positive”, the mutagenic call (Test System: AMES SALMONELLA TYPHIMURIUM, Strain/Indicator: TA100, Metabolic Activation: RAT, LIVER, S-9, PHENOBARBITAL, Method: PREINCUBATION) was “inactive; negative” and the mutagenic call (Test System: AMES SALMONELLA TYPHIMURIUM, Strain/Indicator: TA102, Metabolic Activation: NONE, Method: PREINCUBATION) was “inactive; negative”. The mutagenic call (Test System: AMES SALMONELLA TYPHIMURIUM, Strain/Indicator: TA102, Metabolic Activation: RAT, LIVER, S-9, AROCLOR 1254, Method: PREINCUBATION) was “inactive; negative”, the mutagenic call (Test System: AMES SALMONELLA TYPHIMURIUM, Strain/Indicator: TA104, Metabolic Activation: NONE, Method: PREINCUBATION) was “inactive; negative” and the mutagenic call [5] was “inactive; negative”. For the same compound, the mutagenic call (Test System: AMES SALMONELLA TYPHIMURIUM, Strain/Indicator: TA1535, Metabolic Activation: RAT, LIVER, S-9, AROCLOR 1254, Method: PREINCUBATION) was “inactive; negative” and the mutagenic call (Test System: CHINESE HAMSTER V-79, Strain/Indicator: V-79/6-THIOGUANINE, Metabolic Activation: NONE) was “active; positive”.

From PubChem BioAssay AID1259407 (Chemical Carcinogenesis Research Information System (CCRIS), 2018)
